Reference: patent publication US7674881B2, “Convergent synthesis of proteins by kinetically controlled ligation” (The University of Chicago, priority 2005, dated 2010)
Like-named read-outs stand apart in the source and are kept apart here.

What was measured:
[1] = pKa of thiol catalysts (Table 3)
[2] = Solubility of thiol catalysts at pH 7 (Table 3)

Solubility at pH 7	pKa (physchem)	SMILES	pKa [1]	Solubility at pH 7 [2]
Very soluble	2.03	Sc1ncccn1 [2-mercaptopyrimidine]		
Very soluble	5.78	O=C(O)c1cccc(S)c1 [3-mercaptobenzoic acid]		
Very soluble	6.5	Oc1cccc(S)c1 [3-mercaptophenol]		
Very soluble	8.86	Nc1ccc(S)cc1 [4-aminothiophenol]		
		Sc1ccc(Cl)cc1 [4-chlorothiophenol]	6.11	Sparingly soluble
Soluble	6.8	Oc1ccc(S)cc1 [4-mercaptophenol]		
Very soluble		O=C(O)Cc1ccc(S)cc1 [4-mercaptophenylacetic acid]		
Slightly soluble	6.75	COc1ccc(S)cc1 [4-methoxythiophenol]		
Sparingly soluble	6.8	Cc1ccc(S)cc1 [4-methylthiophenol]		
Soluble		O=[N+]([O-])c1ccc(S)cc1 [4-nitrothiophenol]		
		SCc1ccccc1 [Benzyl mercaptan]	9.67	Sparingly soluble
Very soluble	9.08	O=S(=O)([O-])CCS.[Na+] [MESNA, sodium 2-mercaptoethanesulfonate]		

SMILES	Solubility at pH 7	pKa (physchem)	pKa [1]	Solubility at pH 7 [2]
Sc1ccccn1 [2-mercaptopyridine]	Soluble	-1.07		
Sc1ccccc1 [Thiophenol]	Slightly soluble			
